Data from PMC7403315, “Cyclic peptide FXII inhibitor provides safe anticoagulation in a thrombosis model and in artificial lungs” (Nature Communications, 2020).
Like-named read-outs stand apart in the source and are kept apart here. Starred links: 1 amine or outer side, 2 acyl side, 3 side chain; linkers in the order of their positions; H or OH if unused. Positions of bridges follow the written chain, without caps; N, C: chain ends. Non-standard residues stand in square brackets, D forms with d. Residues, ends and D or L forms follow the SMILES beside them. TATA = O=C(CC[*:1])N1CN(C(=O)CC[*:2])CN(C(=O)CC[*:3])C1; Phe(4-F) = N[C@@H](Cc1ccc(F)cc1)C(=O)O; β3hR = N=C(N)NCCC[C@H](N)CC(=O)O

Molecular target: T1, recombinant human FXIIa (Homo sapiens, UniProt P00748)
T1 construct: made in house; host or cells: CHO cells
T1 sequence (P00748 373-615 limits assumed): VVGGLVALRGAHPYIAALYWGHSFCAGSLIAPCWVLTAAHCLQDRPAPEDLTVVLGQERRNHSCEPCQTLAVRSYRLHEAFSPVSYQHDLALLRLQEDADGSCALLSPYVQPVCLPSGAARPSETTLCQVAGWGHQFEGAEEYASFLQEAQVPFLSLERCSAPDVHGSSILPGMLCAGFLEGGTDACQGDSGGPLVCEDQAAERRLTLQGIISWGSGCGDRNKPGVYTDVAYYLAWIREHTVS
T1 sequence (P00748 20-372 limits assumed): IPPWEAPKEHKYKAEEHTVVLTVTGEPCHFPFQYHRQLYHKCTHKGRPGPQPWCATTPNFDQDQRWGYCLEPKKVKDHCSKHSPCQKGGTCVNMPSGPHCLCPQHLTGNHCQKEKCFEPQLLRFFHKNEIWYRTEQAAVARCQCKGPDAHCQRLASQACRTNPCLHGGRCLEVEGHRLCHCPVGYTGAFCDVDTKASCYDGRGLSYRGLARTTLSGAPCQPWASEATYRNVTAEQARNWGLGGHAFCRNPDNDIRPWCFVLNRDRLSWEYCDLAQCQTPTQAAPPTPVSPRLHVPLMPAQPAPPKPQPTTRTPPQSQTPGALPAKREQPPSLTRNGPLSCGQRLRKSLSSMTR
Assay: Inhibition of recombinant FXIIa (rFXIIa)
Assay type: biochemical
Conditions: for remaining activity at 0.001 µM: peptide 1 nM; for remaining activity at 0.002 µM: peptide 2 nM
Source text: The protein sequences for human, rabbit and pig factor XII were taken from the following database entries: human FXII: UniProtKB - P00748; rabbit FXII: NCBI RefSeq - XP_008253687.1; pig FXII: UniProtKB - O97507. The sequences are shown in the Supplementary Methods. DNA encoding the full-length proteins were ordered from Eurofins Genomics. The codons in these sequences were optimized for mammalian expression using the codon optimization tool from Integrated DNA Technologies (IDT). In addition to the FXII gene, the ordered DNA sequences encode a C-terminal GSGS-linker, a His6-tag and a stop codon, and they are flanked by NheI (GCTAGC) and a HindIII (AAGCTT) restriction sites. The entire DNA sequences are provided in the supporting materials. The DNA sequences were cloned into the pEXPR-IBA42 vector downstream of a BM40 signal sequence for secreted expression in mammalian cells. The ligated vector was transformed into DH5 alpha electrocompetent E. coli cells. Plasmid DNA from single clones was sequenced by Sanger sequencing.
1.5 mg plasmid DNA was transfected into 500 ml CHO cells (Thermo Fisher Scientific) in cell suspension culture using polyethylenimine (PEI). Cells were incubated for seven days at 37 °C, 5% CO2 under shaking conditions. The cells were removed by centrifugation and the secreted protein was purified from the supernatant using a nickel-charged immobilized metal affinity chromatography (IMAC) column (5 ml HisTrap FF Crude, GE Healthcare). The column was equilibrated with buffer containing 15 mM imidazole, 100 mM NaCl, 20 mM Tris-HCl, pH 7.4. The pH of the cell culture supernatant was adjusted to 8.0 using NaOH. The supernatant was run through the column at a flow of 5 ml per min. The column was washed with 20 column volumes of equilibration buffer at a flow of 5 ml per min. The protein was eluted with 500 mM imidazole, 100 mM NaCl, 20 mM Tris-HCl, pH 7.4 at a flow of 5 ml per min. The buffer was subsequently exchanged to 100 mM NaCl, 20 mM Tris-HCl, pH 7.4 by three iterative steps of 10-fold dilution and 10-fold concentration using a 10,000 MWCO centrifugal concentrator. The concentration was determined by measuring absorption at 280 nm (ε = 100,000). For the activation of recombinant FXII, 10 μg protein was diluted to a total volume of 10 μl 100 mM NaCl, 20 mM Tris-HCl, pH 7.4 and further diluted with 10 μl of 2-fold concentrated assay buffer (300 mM NaCl, 20 mM MgCl2, 2 mM CaCl2, 20 mM Tris-HCl, 0.02% (v/v) Triton-X100, pH 7.4). Dextran sulfate 500 kDa (DXS500) was added to a final concentration of 0.2 μg μl^−1 and incubated for 1 hour at 37 °C. 5 μg protein was analyzed by SDS-PAGE under reducing conditions.
Protease inhibition assays
The inhibitory activity of peptides was determined by measuring the residual protease activity with a fluorogenic substrate. The assay was performed in buffer containing 10 mM Tris-Cl, pH […]
1% (v/v) DMSO in a volume of 150 µl. FXIIa activity was measured with the fluorogenic substrate Boc-Gln-Gly-Arg-AMC (Bachem) at a final concentration of 50 µM. Mouse α-FXIIa (Molecular Innovations cat # MFXIIA) and human β-FXIIa (Molecular Innovations cat # HFXIIAB) were used at final concentrations of 0.4 nM. The reaction was pipetted as follows: 50 µl of bicyclic peptide in assay buffer were added to 50 µl of FXIIa in assay buffer and incubated for 10 minutes at 25°C before 50 µl of 150 µM fluorogenic substrate in assay buffer were added to measure the residual protease activity with an Infinite M200Pro fluorescence plate reader (excitation at 368 nm, emission at 467 nm; Tecan) for a period of 30 minutes with a read every minute at 25°C. The Tecan software i-control (version 1.1) was used for data analysis. Stock solutions of 1 mM bicyclic peptide were prepared by either dissolving the unpurified cyclization reaction with water or by dissolving purified and lyophilized peptide in water. The bicyclic peptides were serially diluted two-fold using assay buffer. Sigmoidal curves were fitted to the […]

[1] = read-out: Residual activity (%), Recombinant human FXII, individual plates
[2] = Recombinant human FXII, individual plates, read-out: Residual activity (%)

| Structure (SMILES) | Ki [pM] | remaining activity at 62.5 pM (read-out: Residual activity (%), Recombinant human FXII, peptide 0.0625 nM, individual plates) [%] | remaining activity at 0.000125 µM (read-out: Residual activity (%), Recombinant human FXII, peptide 0.125 nM, individual plates) [%] | remaining activity at 0.0005 µM (read-out: Residual activity (%), Recombinant human FXII, peptide 0.5 nM, individual plates) [%] | remaining activity at 0.001 µM [1] [%] | remaining activity at 0.002 µM [1] [%] | remaining activity at 0.001 µM [2] [%] | remaining activity at 0.002 µM [2] [%] | remaining activity at 0.004 µM (Recombinant human FXII, peptide 4 nM, individual plates, read-out: Residual activity (%)) [%] | remaining activity at 0.008 µM (Recombinant human FXII, peptide 8 nM, individual plates, read-out: Residual activity (%)) [%] | remaining activity at […] (Recombinant human FXII, peptide 16 nM, individual plates, read-out: Residual activity (%)) [%] | remaining activity at […] (Recombinant human FXII, peptide 32 nM, individual plates, read-out: Residual activity (%)) [%] | remaining activity at 0.064 µM (Recombinant human FXII, peptide 64 nM, individual plates, read-out: Residual activity (%)) [%] |
| --- | --- | --- | --- | --- | --- | --- | --- | --- | --- | --- | --- | --- | --- |
| CC(C)C[C@@H]1NC(=O)[C@H](CCC(N)=O)NC(=O)[C@H](Cc2c[nH]cn2)NC(=O)[C@@H]2CSCCC(=O)N3CN(CN(C3)C(=O)CCSC[C@H](NC(=O)[C@@H](CO)NC(=O)[C@H](N)CCCNC(=N)N)C(=O)N[C@@H](Cc3ccc(F)cc3)C(=O)N[C@@H](CCCNC(=N)N)C(=O)N[C@@H](CC(C)C)C(=O)N3CCC[C@H]3C(=O)N2)C(=O)CCSC[C@@H](C(N)=O)NC(=O)C[C@H](CCCNC(=N)N)NC1=O [FXII900] (H-[dR][dS]C[Phe(4-F)]RLPCHQL[β3hR]C-NH2; linker 3-8-13 via TATA) | 510 | 93.8 | 87.9 | 61.1 | 35.5 | 10.4 | – | – | – | – | – | – | – |
| CC(C)C[C@@H]1NC(=O)[C@H](CCC(N)=O)NC(=O)[C@H](CCCNC(=N)N)NC(=O)[C@@H]2CSCCC(=O)N3CN(CN(C3)C(=O)CCSC[C@H](NC(=O)[C@@H](N)CCCNC(=N)N)C(=O)N[C@@H](Cc3ccccc3)C(=O)N[C@@H](CCCNC(=N)N)C(=O)N[C@@H](CC(C)C)C(=O)N3CCC[C@H]3C(=O)N2)C(=O)CCSC[C@@H](C(=O)N[C@@H](CCCNC(=N)N)C(N)=O)NC(=O)[C@H](CCCNC(=N)N)NC1=O [FXII618] | – | – | – | – | – | – | 87.7 | 78.5 | 65.2 | 47.5 | 30 | 16.5 | 6.9 |
